These results are taken from US20230151003A1, “COMPOUNDS AND METHODS OF USE” (Exelixis, Inc., priority 2020, published 2023).

Holding throughout (type): biochemical
Experiment [1] deals with T1, Human MER (Homo sapiens, UniProt Q12866).
T1 construct: Human MER (residues 528-999; CarnaBio, 1 ng/ well); purchased CarnaBio
T1 sequence (Q12866 528-999): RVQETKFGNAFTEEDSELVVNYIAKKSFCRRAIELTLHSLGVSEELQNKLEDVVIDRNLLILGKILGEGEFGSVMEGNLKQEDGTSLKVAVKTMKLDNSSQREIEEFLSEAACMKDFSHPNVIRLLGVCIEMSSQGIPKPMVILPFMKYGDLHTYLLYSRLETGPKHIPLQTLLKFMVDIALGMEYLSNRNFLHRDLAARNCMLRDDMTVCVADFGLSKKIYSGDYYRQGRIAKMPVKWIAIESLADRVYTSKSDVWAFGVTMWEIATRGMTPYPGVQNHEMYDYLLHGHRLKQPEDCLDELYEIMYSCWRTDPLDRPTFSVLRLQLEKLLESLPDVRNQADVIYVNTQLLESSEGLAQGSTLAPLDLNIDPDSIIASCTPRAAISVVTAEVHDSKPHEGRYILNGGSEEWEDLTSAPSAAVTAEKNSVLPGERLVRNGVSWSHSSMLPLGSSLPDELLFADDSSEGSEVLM
The experiment in a line: Human MER kinase assay (HTRF KinEase). The following applies: Table 2 Biological Activities, ATP at Km (40 μM). The method, then: (§1) Kinase activity and compound inhibition were investigated using the HTRF® KinEase assay (Cisbio Cat #62TKOPEB) per manufacturer's instructions. In short, compounds were delivered in 300 nL volumes at 10 different concentrations in DMSO (3% final) to empty 384-well assay plates (Corning cat #3824). A mixture of enzyme, 1 μM biotynlated peptide substrate, and buffer in 10 μL volume was added. The assay was started upon the addition of ATP (at Km). The 10 μL reaction was incubated at room temperature. The reaction was stopped upon the addition of detection buffer containing streptavidin-XL665 (5 μL) and TK antibody-Eu3+ (5 μL). After a 60 min incubation at room temperature, the fluorescence at 665 nm and 620 nm was read on an Envision microplate reader (Perkin Elmer). Kinase activity normalized to DMSO (100% activity) and reference compound at 1 μM and (0% activity) was calculated using the fluorescence ratio […]. IC50 values were calculated by nonlinear regression analysis using a 4-parameter logistic curve fit in ActivityBase XE (IDBS).
Human MER (residues 528-999; CarnaBio, 1 ng/ well) was incubated with enzymatic buffer (Cisbio) supplemented with 5 mM MgCl2 and 1 mM DTT. The mixture was added to the pre-plated compounds. The reaction was initiated upon addition of ATP at Km (40 μM). The reaction was incubated at room temperature for 60 min and stopped upon the addition of SA-XL665 and TK-antibody both diluted in EDTA-containing kinase detection buffer (Cisbio). The kinase activity was calculated as stated above and the IC50 values were reported.
For orientation: In TR-FRET formats the signal depends on donor and acceptor labels being close together.

Experiment [2] addresses KDR (Homo sapiens, UniProt P35968). As to the kind of experiment: Human KDR kinase assay (HTRF KinEase). Also noted: Human KDR (residues 790-1356; CarnaBio, 0.1 ng/ well); purchased CarnaBio. Conditions: Table 2 Biological Activities, ATP at Km (4.0 μM). The method, then: as §1
Human KDR (residues 790-1356; CarnaBio, 0.1 ng/ well) was incubated with enzymatic buffer (Cisbio) supplemented with 5 mM MgCl2, 1 mM MnCl2, and 1 mM DTT. The mixture was added to the pre-plated compounds. The reaction was initiated upon addition of ATP at Km (4.0 μM). The reaction was incubated at room temperature for 40 min and stopped upon the addition of SA-XL665 and TK-antibody both diluted in EDTA-containing kinase detection buffer (Cisbio). The kinase activity was calculated as stated above and the IC50 values were reported.

For experiment [3], the target named is Met (Homo sapiens, UniProt P08581). As to the kind of experiment: Human MET kinase assay (HTRF KinEase). Also noted: Human MET (residues 956-1390; CarnaBio, 0.1 ng/ well); purchased CarnaBio. The following applies: Table 2 Biological Activities, ATP at Km (3.0 μM), read-out: c-Met IC50. The method, then: as §1
Human MET (residues 956-1390; CarnaBio, 0.1 ng/ well) was incubated with enzymatic buffer (Cisbio) supplemented with 5 mM MgCl2, 1 mM DTT and 1 mM MnCl2. The mixture was added to the pre-plated compounds. The reaction was initiated upon addition of ATP at Km (3.0 μM). The reaction was incubated at room temperature for 40 min and stopped upon the addition of SA-XL665 and TK-antibody both diluted in EDTA-containing kinase detection buffer (Cisbio). The kinase activity was calculated as stated above and the IC50 values were reported.

The target in experiment [4] is T2, Human AXL (Homo sapiens, UniProt P30530).
T2 construct: Human AXL (residues 464-885; CarnaBio, 1 ng/ well); purchased CarnaBio
T2 sequence (P30530 464-885 isoform P30530-2): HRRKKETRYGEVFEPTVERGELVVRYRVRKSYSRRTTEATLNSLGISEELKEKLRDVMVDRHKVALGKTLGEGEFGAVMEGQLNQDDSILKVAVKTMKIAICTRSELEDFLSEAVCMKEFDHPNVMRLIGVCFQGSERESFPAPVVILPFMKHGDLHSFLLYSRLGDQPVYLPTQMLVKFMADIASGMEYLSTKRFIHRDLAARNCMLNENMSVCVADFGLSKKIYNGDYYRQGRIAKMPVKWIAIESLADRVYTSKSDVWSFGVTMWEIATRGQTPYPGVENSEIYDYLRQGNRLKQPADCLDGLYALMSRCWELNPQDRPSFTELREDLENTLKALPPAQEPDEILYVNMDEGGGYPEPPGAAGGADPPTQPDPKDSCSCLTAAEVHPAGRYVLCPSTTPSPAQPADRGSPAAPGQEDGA
As to the kind of experiment: Human AXL kinase assay (HTRF KinEase). Conditions: Table 2 Biological Activities, ATP at Km (1.0 μM). The method, then:
as §1
Human AXL (residues 464-885; CarnaBio, 1 ng/ well) was incubated with enzymatic buffer (Cisbio) supplemented with 5 mM MgCl2, 1 mM DTT, and Supplemental Enzymatic Buffer (SEB; Cisbio). The mixture was added to the pre-plated compounds. The reaction was initiated upon addition of ATP at Km (1.0 μM). The reaction was incubated at room temperature for 50 min and stopped upon the addition of SA-XL665 and TK-antibody both diluted in EDTA-containing kinase detection buffer (Cisbio). The kinase activity was calculated as stated above and the IC50 values were reported.

Sequence of KDR (P35968 790-1356): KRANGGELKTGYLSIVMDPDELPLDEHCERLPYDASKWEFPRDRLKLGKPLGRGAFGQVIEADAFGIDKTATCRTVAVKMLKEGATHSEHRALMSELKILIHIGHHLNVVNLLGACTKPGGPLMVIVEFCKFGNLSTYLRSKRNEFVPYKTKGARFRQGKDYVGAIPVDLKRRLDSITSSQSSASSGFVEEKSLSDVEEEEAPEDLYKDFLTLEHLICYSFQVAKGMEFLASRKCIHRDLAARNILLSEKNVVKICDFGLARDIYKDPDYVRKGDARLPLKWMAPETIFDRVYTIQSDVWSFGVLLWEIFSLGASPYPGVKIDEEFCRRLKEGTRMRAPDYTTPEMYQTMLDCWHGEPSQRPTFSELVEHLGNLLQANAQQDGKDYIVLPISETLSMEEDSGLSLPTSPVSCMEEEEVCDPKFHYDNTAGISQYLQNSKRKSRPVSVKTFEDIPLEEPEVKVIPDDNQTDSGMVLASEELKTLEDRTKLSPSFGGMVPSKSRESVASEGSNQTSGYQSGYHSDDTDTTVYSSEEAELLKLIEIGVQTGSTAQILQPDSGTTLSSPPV
Sequence of Met (P08581 956-1390): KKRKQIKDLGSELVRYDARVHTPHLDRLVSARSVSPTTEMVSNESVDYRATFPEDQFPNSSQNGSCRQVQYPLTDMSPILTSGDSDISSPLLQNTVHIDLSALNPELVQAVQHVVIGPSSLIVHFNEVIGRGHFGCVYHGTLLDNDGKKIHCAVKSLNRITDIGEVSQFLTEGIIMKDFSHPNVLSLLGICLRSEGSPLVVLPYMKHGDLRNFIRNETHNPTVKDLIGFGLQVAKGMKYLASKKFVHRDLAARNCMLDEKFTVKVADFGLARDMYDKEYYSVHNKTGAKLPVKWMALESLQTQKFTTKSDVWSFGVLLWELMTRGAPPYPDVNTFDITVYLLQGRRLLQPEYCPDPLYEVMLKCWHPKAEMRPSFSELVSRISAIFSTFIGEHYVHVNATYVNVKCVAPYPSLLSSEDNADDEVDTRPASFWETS

On to `COc1cc2nccc(Oc3ccc(NC(=O)c4c(C)ccn(-c5ccc(F)cn5)c4=O)cc3F)c2nc1OC` [Compound 41, N-[4-[(6,7-Dimethoxy-1,5-naphthyridin-4-yl)oxy]-3-fluorophenyl]-1-(5-fluoropyridin-2-yl)-4-methyl-2-oxopyridine-3-carboxamide], for which the IC50 in experiment [1], in experiment [2], in experiment [3] and in experiment [4] was at most 100 nM each time.

Turning to `COc1cc2nccc(Oc3ccc(NC(=O)c4c(C)ncc(-c5ccc(F)cn5)c4O)cc3F)c2nc1OC` [Compound 68, N-[4-[(6,7-Dimethoxy-1,5-naphthyridin-4-yl)oxy]-3-fluorophenyl]-5-(5-fluoropyridin-2-yl)-4-hydroxy-2-methylpyridine-3-carboxamide], the IC50 in experiment [1], in experiment [2], in experiment [3] and in experiment [4] was at most 100 nM each time.

With `COc1cc2nccc(Oc3ccc(NC(=O)c4ccc(C)n(-c5ccc(F)cn5)c4=O)cc3)c2nc1OC` [Compound 44, N-[4-[(6,7-Dimethoxy-1,5-naphthyridin-4-yl)oxy]phenyl]-1-(5-fluoropyridin-2-yl)-6-methyl-2-oxopyridine-3-carboxamide], the IC50 in experiment [1], in experiment [2], in experiment [3] and in experiment [4] was at most 100 nM throughout.

For `COCCOc1cc2nccc(Oc3ccc(NC(=O)c4ccc(C)n(-c5ccc(F)cn5)c4=O)cc3F)c2nc1OC` [Compound 50, N-[3-Fluoro-4-[[6-methoxy-7-(2-methoxyethoxy)-1,5-naphthyridin-4-yl]oxy]phenyl]-1-(5-fluoropyridin-2-yl)-6-methyl-2-oxopyridine-3-carboxamide], the half-maximal inhibitory concentration (IC50) in experiment [1], in experiment [2], in experiment [3] and in experiment [4] was at most 100 nM each time.

As to `COc1cc2nccc(Oc3ccc(NC(=O)c4cc(C(C)=O)c(C)n(-c5ccc(F)cn5)c4=O)cc3F)c2nc1OC` [Compound 59, 5-Acetyl-N-[4-[(6,7-dimethoxy-1,5-naphthyridin-4-yl)oxy]-3-fluorophenyl]-1-(5-fluoropyridin-2-yl)-6-methyl-2-oxopyridine-3-carboxamide], the IC50 (usually the concentration that inhibits the measured activity by half) in experiment [1] was at most 100 nM; in experiment [2] it was 300 to 1000 nM; in experiment [3] it was at most 100 nM; in experiment [4], at most 100 nM.

`COc1ccc2nccc(Oc3ccc(NC(=O)c4ccc(C)n(-c5ncc(F)cc5C)c4=O)cc3F)c2n1` [Compound 53, N-[3-Fluoro-4-[(6-methoxy-1,5-naphthyridin-4-yl)oxy]phenyl]-1-(5-fluoro-3-methylpyridin-2-yl)-6-methyl-2-oxopyridine-3-carboxamide]: the IC50 is at most 100 nM in experiment [1], 300 to 1000 nM in experiment [2], at most 100 nM in experiment [3] and at most 100 nM in experiment [4].

Consider `COc1cc2nccc(Oc3ccc(NC(=O)c4cn(C)c(C)c(-c5ccc(F)cn5)c4=O)cc3)c2nc1OC` [Compound 86, N-[4-[(6,7-Dimethoxy-1,5-naphthyridin-4-yl)oxy]phenyl]-5-(5-fluoropyridin-2-yl)-1,6-dimethyl-4-oxopyridine-3-carboxamide], for which the IC50 in experiment [1] was at most 100 nM; in experiment [2] it was 300 to 1000 nM; in experiment [3] it was at most 100 nM; in experiment [4] it was at most 100 nM.

For the molecule `COc1cc2nccc(Oc3ccc(NC(=O)c4cnc(C)c(-c5ccc(F)cn5)c4O)cc3F)c2nc1OC` [Compound 85, N-[4-[(6,7-Dimethoxy-1,5-naphthyridin-4-yl)oxy]-3-fluorophenyl]-5-(5-fluoropyridin-2-yl)-4-hydroxy-6-methylpyridine-3-carboxamide], the IC50 in experiment [1], in experiment [2], in experiment [3] and in experiment [4] was at most 100 nM throughout.

With `COc1cc2nccc(Oc3ccc(NC(=O)c4cccn(-c5ccc(F)cn5)c4=O)cc3F)c2nc1OC` [Compound 42, N-[4-[(6,7-Dimethoxy-1,5-naphthyridin-4-yl)oxy]-3-fluorophenyl]-1-(5-fluoropyridin-2-yl)-2-oxopyridine-3-carboxamide], the IC50 in experiment [1], in experiment [2], in experiment [3] and in experiment [4] was at most 100 nM in each case.

In the case of `Cc1ccc(C(=O)Nc2ccc(Oc3ccnc4cccnc34)c(F)c2)c(=O)n1-c1ccc(F)cn1` [Compound 48, N-[3-Fluoro-4-(1,5-naphthyridin-4-yloxy)phenyl]-1-(5-fluoropyridin-2-yl)-6-methyl-2-oxopyridine-3-carboxamide], the IC50 in experiment [1] was at most 100 nM; in experiment [2], 300 to 1000 nM; in experiment [3], at most 100 nM; in experiment [4], at most 100 nM.

As for `COc1cc2nccc(Oc3ccc(NC(=O)c4c(C)ncc(-c5ccccn5)c4O)cc3F)c2nc1OC` [Compound 69, N-[4-[(6,7-Dimethoxy-1,5-naphthyridin-4-yl)oxy]-3-fluorophenyl]-4-hydroxy-2-methyl-5-pyridin-2-ylpyridine-3-carboxamide], the half-inhibitory concentration (IC50) in experiment [1], in experiment [2], in experiment [3] and in experiment [4] was at most 100 nM in each case.

Turning to `COc1cnc2c(Oc3ccc(NC(=O)c4ccc(C)n(-c5ccc(F)cn5)c4=O)cc3F)ccnc2c1` [Compound 45, N-[3-Fluoro-4-[(7-methoxy-1,5-naphthyridin-4-yl)oxy]phenyl]-1-(5-fluoropyridin-2-yl)-6-methyl-2-oxopyridine-3-carboxamide], the IC50 was at most 100 nM in experiment [1], 100 to 300 nM in experiment [2], at most 100 nM in experiment [3] and at most 100 nM in experiment [4].
